Measurements taken from ChEMBL document CHEMBL4507298 (2021).

Assays:
Settings in all cases: Compound concentration 10.0 uM
[1] = target: Alpha-1A adrenergic receptor (Homo sapiens) (UniProt P35348)
[2] = target: 5-hydroxytryptamine receptor 2A (Homo sapiens) (UniProt P28223)
[3] = target: GABA-A receptor; anion channel (Rattus norvegicus) (UniProt O09028+P15431+P18506+P18508+P19969+P20236+P23574+P23576+P28471+P28473+P30191+P62813+P63079+P63138+Q91ZM7+Q9ES14)
[4] = target: 5-hydroxytryptamine receptor 2B (Homo sapiens) (UniProt P41595)
5-hydroxytryptamine receptor 2B (Homo sapiens), sequence (P41595 whole entry): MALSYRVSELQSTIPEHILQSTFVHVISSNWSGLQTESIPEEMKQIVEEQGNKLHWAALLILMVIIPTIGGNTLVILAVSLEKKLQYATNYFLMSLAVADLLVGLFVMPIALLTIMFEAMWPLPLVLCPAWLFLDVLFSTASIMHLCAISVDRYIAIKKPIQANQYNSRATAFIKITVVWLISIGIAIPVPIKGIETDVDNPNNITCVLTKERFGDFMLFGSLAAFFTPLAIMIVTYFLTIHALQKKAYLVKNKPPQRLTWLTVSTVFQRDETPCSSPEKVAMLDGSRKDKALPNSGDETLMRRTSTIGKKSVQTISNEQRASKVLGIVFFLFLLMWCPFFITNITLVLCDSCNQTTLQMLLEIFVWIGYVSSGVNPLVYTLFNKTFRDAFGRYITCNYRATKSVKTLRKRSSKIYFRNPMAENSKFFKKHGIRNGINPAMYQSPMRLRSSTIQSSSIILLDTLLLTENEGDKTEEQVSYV

[5] = target: Sodium-dependent noradrenaline transporter (Homo sapiens) (UniProt P23975)
Sodium-dependent noradrenaline transporter (Homo sapiens), sequence (P23975 whole entry): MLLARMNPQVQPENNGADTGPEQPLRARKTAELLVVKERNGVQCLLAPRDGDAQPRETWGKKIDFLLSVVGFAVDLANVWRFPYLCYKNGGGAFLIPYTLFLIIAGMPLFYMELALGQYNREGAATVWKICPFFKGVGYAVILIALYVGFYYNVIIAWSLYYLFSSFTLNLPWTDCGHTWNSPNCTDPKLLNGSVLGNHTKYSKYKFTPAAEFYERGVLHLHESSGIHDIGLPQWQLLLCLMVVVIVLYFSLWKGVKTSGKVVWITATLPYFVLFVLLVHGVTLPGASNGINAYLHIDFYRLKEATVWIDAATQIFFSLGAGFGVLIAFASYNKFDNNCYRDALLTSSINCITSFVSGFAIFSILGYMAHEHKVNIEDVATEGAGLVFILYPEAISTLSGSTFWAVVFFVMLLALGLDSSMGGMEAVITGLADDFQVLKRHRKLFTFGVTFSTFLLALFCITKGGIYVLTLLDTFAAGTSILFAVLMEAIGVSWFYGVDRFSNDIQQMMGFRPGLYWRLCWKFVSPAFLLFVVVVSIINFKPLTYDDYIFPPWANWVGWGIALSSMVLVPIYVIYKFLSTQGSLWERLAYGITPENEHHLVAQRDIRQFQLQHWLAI

[6] = target: Histamine H2 receptor (Homo sapiens) (UniProt P25021)
Histamine H2 receptor (Homo sapiens), sequence (P25021 whole entry): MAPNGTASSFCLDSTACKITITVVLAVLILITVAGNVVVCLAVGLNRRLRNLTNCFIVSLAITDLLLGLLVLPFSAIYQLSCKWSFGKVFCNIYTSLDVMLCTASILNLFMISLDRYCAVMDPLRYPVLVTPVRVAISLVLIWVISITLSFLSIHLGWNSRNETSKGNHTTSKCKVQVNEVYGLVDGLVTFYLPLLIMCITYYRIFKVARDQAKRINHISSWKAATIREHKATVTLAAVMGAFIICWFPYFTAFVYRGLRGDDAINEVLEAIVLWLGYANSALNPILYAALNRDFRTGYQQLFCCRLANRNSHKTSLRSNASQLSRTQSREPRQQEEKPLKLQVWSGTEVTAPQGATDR

[7] = target: Delta-type opioid receptor (Homo sapiens) (UniProt P41143)
Delta-type opioid receptor (Homo sapiens), sequence (P41143 whole entry): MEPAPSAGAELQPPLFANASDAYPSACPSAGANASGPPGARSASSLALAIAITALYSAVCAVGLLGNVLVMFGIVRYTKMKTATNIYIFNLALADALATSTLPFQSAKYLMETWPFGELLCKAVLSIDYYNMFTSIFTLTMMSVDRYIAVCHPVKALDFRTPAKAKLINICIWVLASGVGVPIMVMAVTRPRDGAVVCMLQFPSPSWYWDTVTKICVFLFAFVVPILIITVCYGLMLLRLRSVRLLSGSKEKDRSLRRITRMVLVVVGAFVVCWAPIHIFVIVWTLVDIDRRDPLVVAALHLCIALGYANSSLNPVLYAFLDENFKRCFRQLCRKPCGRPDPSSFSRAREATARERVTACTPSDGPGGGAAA

[8] = target: T1, Alpha-2B adrenergic receptor (Homo sapiens) (UniProt P18089)
T1 sequence (whole entry): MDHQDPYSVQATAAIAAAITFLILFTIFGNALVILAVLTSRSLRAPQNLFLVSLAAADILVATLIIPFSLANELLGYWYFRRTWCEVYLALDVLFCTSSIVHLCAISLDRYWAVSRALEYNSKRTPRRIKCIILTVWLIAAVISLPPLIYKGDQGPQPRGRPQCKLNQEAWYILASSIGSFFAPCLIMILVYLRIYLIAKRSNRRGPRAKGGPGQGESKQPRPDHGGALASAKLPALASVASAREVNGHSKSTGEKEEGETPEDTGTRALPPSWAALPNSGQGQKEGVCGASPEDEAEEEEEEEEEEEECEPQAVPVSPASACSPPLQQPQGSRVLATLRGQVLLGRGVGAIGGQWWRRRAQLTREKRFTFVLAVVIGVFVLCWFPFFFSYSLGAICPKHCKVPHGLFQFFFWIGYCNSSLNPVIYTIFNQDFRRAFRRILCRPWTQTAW

[9] = target: T2, Muscarinic acetylcholine receptor M1 (Homo sapiens) (UniProt P11229)
T2 sequence (whole entry): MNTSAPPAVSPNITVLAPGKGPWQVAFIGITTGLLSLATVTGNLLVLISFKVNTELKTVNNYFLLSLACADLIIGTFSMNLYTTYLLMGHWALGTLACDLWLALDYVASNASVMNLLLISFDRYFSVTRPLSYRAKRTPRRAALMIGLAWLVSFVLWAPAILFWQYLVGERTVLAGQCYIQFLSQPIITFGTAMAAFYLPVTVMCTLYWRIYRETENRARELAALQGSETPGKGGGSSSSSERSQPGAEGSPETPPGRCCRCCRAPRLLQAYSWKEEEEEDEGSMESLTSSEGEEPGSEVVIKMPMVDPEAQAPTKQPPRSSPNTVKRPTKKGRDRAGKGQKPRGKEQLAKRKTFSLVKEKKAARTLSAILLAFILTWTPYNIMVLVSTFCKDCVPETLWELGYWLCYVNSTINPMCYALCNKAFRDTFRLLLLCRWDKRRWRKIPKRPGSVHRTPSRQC

[10] = target: Muscarinic acetylcholine receptor M3 (Homo sapiens) (UniProt P20309)
Muscarinic acetylcholine receptor M3 (Homo sapiens), sequence (P20309 whole entry, looked up): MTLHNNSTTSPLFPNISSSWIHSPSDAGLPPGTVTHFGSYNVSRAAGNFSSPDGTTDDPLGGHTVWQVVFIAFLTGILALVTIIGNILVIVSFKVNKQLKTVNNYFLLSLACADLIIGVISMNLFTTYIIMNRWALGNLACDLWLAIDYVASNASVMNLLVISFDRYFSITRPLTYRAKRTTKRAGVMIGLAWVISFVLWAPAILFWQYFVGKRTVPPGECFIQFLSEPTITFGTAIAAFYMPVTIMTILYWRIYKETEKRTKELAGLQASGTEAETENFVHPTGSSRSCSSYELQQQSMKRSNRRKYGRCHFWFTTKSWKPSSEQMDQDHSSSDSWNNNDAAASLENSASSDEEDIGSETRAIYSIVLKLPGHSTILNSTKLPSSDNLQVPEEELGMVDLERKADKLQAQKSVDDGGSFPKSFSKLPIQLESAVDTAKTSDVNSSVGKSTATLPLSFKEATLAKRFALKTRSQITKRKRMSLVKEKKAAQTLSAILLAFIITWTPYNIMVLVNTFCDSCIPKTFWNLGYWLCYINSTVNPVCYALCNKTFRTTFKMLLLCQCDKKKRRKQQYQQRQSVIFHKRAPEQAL

[11] = target: T3, 5-hydroxytryptamine receptor 2C (Homo sapiens) (UniProt P28335)
T3 sequence (whole entry): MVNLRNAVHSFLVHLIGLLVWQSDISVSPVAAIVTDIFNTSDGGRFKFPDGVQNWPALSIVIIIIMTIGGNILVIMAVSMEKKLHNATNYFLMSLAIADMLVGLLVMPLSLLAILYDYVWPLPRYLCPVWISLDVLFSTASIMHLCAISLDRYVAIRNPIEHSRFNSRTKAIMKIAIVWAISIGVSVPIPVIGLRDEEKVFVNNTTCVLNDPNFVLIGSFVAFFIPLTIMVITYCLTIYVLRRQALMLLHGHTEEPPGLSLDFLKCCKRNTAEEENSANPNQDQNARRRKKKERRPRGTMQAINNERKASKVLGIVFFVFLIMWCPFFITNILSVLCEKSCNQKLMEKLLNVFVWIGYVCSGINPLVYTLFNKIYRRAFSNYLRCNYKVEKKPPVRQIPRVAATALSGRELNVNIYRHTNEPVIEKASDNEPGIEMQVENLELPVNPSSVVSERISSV

[12] = target: T4, D(4) dopamine receptor (Homo sapiens) (UniProt P21917)
T4 sequence (whole entry): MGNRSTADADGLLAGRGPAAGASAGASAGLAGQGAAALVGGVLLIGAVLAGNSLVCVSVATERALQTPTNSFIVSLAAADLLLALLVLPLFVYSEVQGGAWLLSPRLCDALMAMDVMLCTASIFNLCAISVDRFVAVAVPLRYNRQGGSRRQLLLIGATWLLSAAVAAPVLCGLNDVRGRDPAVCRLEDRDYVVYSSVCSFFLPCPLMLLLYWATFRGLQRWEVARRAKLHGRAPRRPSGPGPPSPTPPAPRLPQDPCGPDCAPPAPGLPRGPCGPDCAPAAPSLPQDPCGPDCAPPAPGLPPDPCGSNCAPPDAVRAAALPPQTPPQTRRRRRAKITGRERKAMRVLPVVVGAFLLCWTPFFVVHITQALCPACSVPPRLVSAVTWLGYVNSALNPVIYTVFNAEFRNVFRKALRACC

[13] = target: Alpha-1D adrenergic receptor (Homo sapiens) (UniProt P25100)
Alpha-1D adrenergic receptor (Homo sapiens), sequence (P25100 whole entry): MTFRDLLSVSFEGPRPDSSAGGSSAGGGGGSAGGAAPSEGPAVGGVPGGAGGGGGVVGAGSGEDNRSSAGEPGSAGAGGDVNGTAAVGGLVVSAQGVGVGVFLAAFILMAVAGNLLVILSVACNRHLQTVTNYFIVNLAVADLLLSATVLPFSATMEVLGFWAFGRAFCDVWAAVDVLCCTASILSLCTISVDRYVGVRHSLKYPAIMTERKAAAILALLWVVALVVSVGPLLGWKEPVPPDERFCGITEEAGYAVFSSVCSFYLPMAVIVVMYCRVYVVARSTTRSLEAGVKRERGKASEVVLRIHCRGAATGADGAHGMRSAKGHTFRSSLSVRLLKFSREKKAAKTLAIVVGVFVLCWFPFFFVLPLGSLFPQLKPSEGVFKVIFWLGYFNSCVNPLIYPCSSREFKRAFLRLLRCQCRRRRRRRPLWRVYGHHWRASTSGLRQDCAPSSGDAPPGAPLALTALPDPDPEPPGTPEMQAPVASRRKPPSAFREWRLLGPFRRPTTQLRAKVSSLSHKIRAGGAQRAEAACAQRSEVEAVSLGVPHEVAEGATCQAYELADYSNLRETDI

[14] = target: D(3) dopamine receptor (Homo sapiens) (UniProt P35462)
D(3) dopamine receptor (Homo sapiens), sequence (P35462 whole entry): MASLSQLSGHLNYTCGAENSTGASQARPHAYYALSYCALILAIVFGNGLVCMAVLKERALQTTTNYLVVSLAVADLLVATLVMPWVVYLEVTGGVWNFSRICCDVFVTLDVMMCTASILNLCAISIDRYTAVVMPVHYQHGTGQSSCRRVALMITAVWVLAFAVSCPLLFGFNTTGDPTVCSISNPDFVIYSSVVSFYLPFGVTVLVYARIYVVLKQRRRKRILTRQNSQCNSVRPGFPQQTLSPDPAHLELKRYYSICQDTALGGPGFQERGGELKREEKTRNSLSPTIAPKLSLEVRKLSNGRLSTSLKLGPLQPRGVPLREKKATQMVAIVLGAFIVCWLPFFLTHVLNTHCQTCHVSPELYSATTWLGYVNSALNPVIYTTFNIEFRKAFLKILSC

Measured: inhibition

Alpha-1A adrenergic receptor (Homo sapiens), sequence (P35348 whole entry): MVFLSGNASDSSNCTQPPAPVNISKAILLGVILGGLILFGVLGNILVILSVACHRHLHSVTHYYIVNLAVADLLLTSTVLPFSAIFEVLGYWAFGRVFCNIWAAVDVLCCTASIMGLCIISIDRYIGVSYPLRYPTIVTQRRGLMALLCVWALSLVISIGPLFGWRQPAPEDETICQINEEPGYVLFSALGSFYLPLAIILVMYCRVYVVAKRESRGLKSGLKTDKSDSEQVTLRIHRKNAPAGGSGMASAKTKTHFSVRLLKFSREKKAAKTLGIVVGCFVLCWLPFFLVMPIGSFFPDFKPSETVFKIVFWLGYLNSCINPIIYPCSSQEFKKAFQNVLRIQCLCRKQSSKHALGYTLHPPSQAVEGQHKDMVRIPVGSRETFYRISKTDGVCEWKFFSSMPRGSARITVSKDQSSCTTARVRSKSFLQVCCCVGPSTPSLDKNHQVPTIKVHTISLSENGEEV
5-hydroxytryptamine receptor 2A (Homo sapiens), sequence (P28223 whole entry): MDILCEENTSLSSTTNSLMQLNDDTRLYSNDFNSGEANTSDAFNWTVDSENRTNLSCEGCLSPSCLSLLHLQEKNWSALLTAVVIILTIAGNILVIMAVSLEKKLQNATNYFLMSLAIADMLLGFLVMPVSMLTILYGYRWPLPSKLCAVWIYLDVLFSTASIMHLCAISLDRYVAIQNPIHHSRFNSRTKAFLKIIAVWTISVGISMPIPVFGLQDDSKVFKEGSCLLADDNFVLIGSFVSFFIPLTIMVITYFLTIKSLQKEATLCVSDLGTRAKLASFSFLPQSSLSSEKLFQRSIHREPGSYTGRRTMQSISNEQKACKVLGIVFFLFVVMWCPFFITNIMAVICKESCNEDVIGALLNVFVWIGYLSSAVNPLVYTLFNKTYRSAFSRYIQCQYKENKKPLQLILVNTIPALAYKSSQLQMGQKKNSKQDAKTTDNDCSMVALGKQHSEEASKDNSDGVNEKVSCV

O=C(c1ccc(F)cc1)N1CC(COc2ccc(Br)cc2)(C(=O)O)C1 [PF-04475866]
inactive: [1] -4.09% | [2] -2.23% | [3] -8.88% | [4] -2.5% | [5] 16.8% | [6] 15.7% | [7] -5.22% | [8] 12.1% | [9] -0.69% | [10] 27.9% | [11] 30.2% | [12] -7.87% | [13] 5% | [14] 3.89%

COc1ccc2cc(OCC3(C(=O)O)CN(C(=O)c4ccc(F)cc4)C3)ccc2c1 [PF-04418948]
inactive: [1] 2.52% | [2] 6.25% | [3] -1.97% | [4] -0.11% | [5] 11% | [6] 3% | [7] 5.07% | [8] 9.24% | [9] -0.03% | [10] 19.2% | [11] 12.3% | [12] 8.76% | [13] -3.76% | [14] 33%
